Literature values in article PMC8153205 (Journal of Inflammation Research, 2021).

System: rheumatoid arthritis
Conditions: RA clinical trials

NC(=O)c1cnc2[nH]ccc2c1N[C@@H]1[C@@H]2CC3C[C@H]1C[C@@](O)(C3)C2 [peficitinib]
SUCRA for serious adverse events (safety): 0.66
